The record followed here is patent publication EP3981864A1, “DETERGENT COMPOSITION” (priority 2020, dated 2022).

In experiment [1] the test system is Pseudomonas alcaligenes αDOX (SEQ ID NO: 12), fatty acid alpha-dioxygenase, U3BA19, N-terminal His-tag variant SEQ ID NO: 271 (comparative). The experiment is described as follows: Alpha-dioxygenase activity assay (oxygen consumption, TON). The format is biochemical. The note with it: fatty acid 100 µM, enzyme 6 ppm, 50 mM HEPES pH 9.0, 37°C; initial rate of oxygen consumption / enzyme concentration. The text has this: Pseudomonas alcaligenes αDOX (SEQ ID NO: 12) is a fatty acid alpha-dioxygenase that converts fatty acids into the corresponding 2-hydroperoxy fatty acids and is included as a comparative example of the present invention. A codon optimized gene (SEQ ID NO: 270) encoding for an alpha-dioxygenase variant (SEQ ID NO: 271), including an N-terminal amino acid sequence containing a His-tag was designed and synthesized by Genscript. After gene synthesis, the protein was expressed and purified. In brief, the complete synthetic gene sequence was subcloned into a pET30a vector using the NdeI/HindIII cloning sites. For heterologous expression, Escherichia coli BL21 (DE3) cells were transformed with the recombinant plasmid and a single colony was inoculated into LB medium containing kanamycin (50 mg/L). A pre-starter culture was then inoculated into flasks containing Magic Media (Thermo Fisher, Catalog # K6803) supplemented with kanamycin (50 mg/L) and incubated at 16 °C for 72 h. At an OD600nm = 0.5 - 1.0, 5-aminolevulinic acid (final concentration 0.5 mM) was added. Cells were harvested by centrifugation at 5000 rpm and 4°C and the pellet was lysed using a bacterial cell lysis buffer (B-PER - Themo Fisher, Waltham, MA). After centrifugation, the supernatant was collected, and the protein was purified by one-step purification using HisPur™ Ni-NTA Spin Columns (Thermo Scientific, Catalog # 88226) and standard protocols known in the art. The protein was concentrated using a 10 kDa MW cutoff Amicon Ultra centrifugal filter unit (Millipore Sigma, Catalog# UFC901024), followed by desalting using a disposable PD-10 desalting column (GE Healthcare Life Sciences, Catalog# 17085101) and a buffer containing 50 mM Tris-HCl, 500 mM NaCl, and 10% Glycerol at pH 8.0. […]
Reactions with alpha-dioxygenases were performed as follows. […] The reaction was incubated for up to 10 minutes at 37°C with 200 rpm agitation and the conversion was monitored using an oxygen sensor. The TON (in s-1) were calculated as the ratio between the initial rate of oxygen consumption (in µM/s) and the concentration of enzyme (in µM). […]

Experiment [2] concerns the target T1, Arabidopsis thaliana αDOX (SEQ ID NO: 10), fatty acid alpha-dioxygenase, Q9C9U3, variant with N-terminal His-tag, MBP tag and TEV site SEQ ID NO: 267 (comparati (Arabidopsis thaliana, UniProt Q9C9U3)).
T1 construct: His-tag (N); MBP tag (N); TEV protease cleavage site (N); made in house; host or cells: Escherichia coli BL21 (DE3), modified pET28a
T1 sequence (Q9C9U3 21-631): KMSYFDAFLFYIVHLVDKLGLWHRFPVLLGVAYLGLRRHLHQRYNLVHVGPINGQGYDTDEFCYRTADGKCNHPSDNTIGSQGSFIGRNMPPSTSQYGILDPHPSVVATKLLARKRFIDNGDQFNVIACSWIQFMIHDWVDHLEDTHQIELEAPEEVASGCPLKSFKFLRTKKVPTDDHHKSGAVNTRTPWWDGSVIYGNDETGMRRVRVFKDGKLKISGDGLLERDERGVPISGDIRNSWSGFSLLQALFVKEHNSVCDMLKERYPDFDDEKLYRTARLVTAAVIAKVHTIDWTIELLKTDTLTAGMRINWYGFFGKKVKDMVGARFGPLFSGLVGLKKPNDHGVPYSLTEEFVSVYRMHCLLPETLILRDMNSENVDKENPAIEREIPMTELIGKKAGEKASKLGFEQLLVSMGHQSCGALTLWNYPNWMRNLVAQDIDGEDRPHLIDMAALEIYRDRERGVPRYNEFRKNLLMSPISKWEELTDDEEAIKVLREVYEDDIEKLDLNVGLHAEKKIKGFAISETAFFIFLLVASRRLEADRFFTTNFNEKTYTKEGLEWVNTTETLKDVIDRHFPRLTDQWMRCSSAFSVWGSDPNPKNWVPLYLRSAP
The description is as above. The format is biochemical. Conditions: fatty acid 100 µM, enzyme 6 ppm, 50 mM HEPES pH 9.0, 37°C; initial rate of oxygen consumption / enzyme concentration. The source says:
Arabidopsis thaliana αDOX (SEQ ID NO: 10) is a fatty acid alpha-dioxygenase that converts fatty acids into the corresponding 2-hydroperoxy fatty acids and is included as a comparative example of the present invention. A codon optimized gene (SEQ ID NO: 266) encoding for an alpha-dioxygenase variant was designed and synthesized by Genscript. After synthesis, the gene was cloned into a modified version of pET28a, such as the final plasmid encoded for a αDOX variant including an N-terminal amino acid sequence containing a His-tag, an MBP tag, and a TEV protease cleavage site (SEQ ID NO: 267). For heterologous expression, Escherichia coli BL21 (DE3) cells were transformed with the recombinant plasmid and a single colony was inoculated into LB medium containing kanamycin (50 mg/L). A pre-starter culture was then inoculated into flasks containing TB Media supplemented with kanamycin (50 mg/L) and incubated at 37 °C. At an OD600nm about 3.8, IPTG (final concentration 0.1 mM) and 5-aminolevulinic acid (final concentration 0.25 mM) were added to the culture and further incubated at 16 °C for 16 h. Cells were harvested by centrifugation and the pellet was lysed. After centrifugation, the supernatant was collected, and the protein was purified by one-step purification using Ni-NTA affinity chromatography and standard protocols known in the art. The protein was stored in 1×PBS buffer containing 10% Glycerol and at pH 7.4. The purified enzyme was stored at -80 °C until use.
Reactions with alpha-dioxygenases were performed as follows. An aliquot of fatty acid in ethanol (final concentration 100 µM) was resuspended in buffer (50 mM HEPES at pH 9.0) in a scintillation vial. The reaction was started by addition of enzyme (final concentration 6 ppm). The reaction was incubated for up to 10 minutes at 37°C with 200 rpm agitation and the conversion was monitored using an oxygen sensor. The TON (in s-1) were calculated as the ratio between the initial rate of oxygen consumption (in µM/s) and the concentration of enzyme (in µM). […]

For `CCCCCCCCCCCCCCCCCC(=O)O` [Stearic Acid], the “Stearic Acid, TON” value in experiment [1] is 0.21 s⁻¹; in experiment [2], 0.13 s⁻¹.
Turning to `CCCCCCCC/C=C\CCCCCCCC(=O)O` [Oleic Acid], the “Oleic Acid, TON” value amounted to 0.00 s⁻¹ in experiment [1] and 0.13 s⁻¹ in experiment [2].
`CCCCCCCCCCCCCCCC(=O)O` [Palmitic Acid]: the “Palmitic Acid, TON” value came out at 0.36 s⁻¹ in experiment [1] and 0.54 s⁻¹ in experiment [2].
